Measurements as given in patent US9162979B2, “1,5-Diary1-2-alkylpyrrole-3-substituted nitro esters, selective COX-2 inhibitors and nitric oxide donors” (ROTTAPHARM BIOTECH S.R.L., priority 2010, dated 2015).
One block for each compound: values may come before it.

Columns and labels:
[1] = system: isolated rings of thoracic aorta; assay: Evaluation of release of NO: vasorelaxing activity on endothelium-denuded aortic rings contracted with KCl; design: species or system rat; key to NO release properties Emax (maximum vasorelaxing effect) / NO release properties pIC50 (vasorelaxing potency): S.E: Scarcely Effective: it is not possible to detect NO release comparable to the other compounds mentioned here; details: for IC50 / Emax: Rattus norvegicus; for IC50: concentration reducing contractile tone induced by 20 mM KCl by half, read-out: NO release properties pIC50 (vasorelaxing potency) (converted); for Emax / NO release properties Emax (maximum vasorelaxing effect): relative to contractile tone induced by 20 mM KCl, 1 nM-10 μM; for Emax: read-out: NO release properties Emax (maximum vasorelaxing effect)
Outline: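 Endothelium-denuded male Wistar rat thoracic aorta rings (2 g preload, Tyrode, 37 °C, 95% O2/5% CO2) precontracted with 20 mM KCl, then given cumulative test compound (1 nM–10 μM). Relaxation as % of KCl tone; Emax and pIC50 reported as mean±SE of 5–10 experiments. Also repeated with 1 μM ODQ.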

rat liver homogenate [2] = details: 1 mM
Text: (§3) By evaluating the time-dependent increase in nitrite concentrations in the liver homogenate, it was possible to extrapolate two descriptive parameters:
(§4) Time (in minutes) required for an amount of nitrite to be released by the test compound equal to half its maximum release.

rat liver homogenate [3] = assay: Evaluation of release of nitrites in hepatic homogenate; details: for Maximum release (%): nitrite after 4 hours, 1 mM, 37° C., as percentage of SNP
Text: as §3, §4

COX-2 = COX-2 (Mus musculus (Mouse), UniProt Q05769); assay: Evaluation of COX-2 activity: PGE2 production in LPS-stimulated J774 cells; format: cell-based, murine; details: J774 cells stimulated 24 hours with LPS 10 μg/mL; PGE2 by radio-immunological assay; read-out: Cyclooxygenase inhibition COX-2 IC50
Chain of COX-2 (Q05769 18-604): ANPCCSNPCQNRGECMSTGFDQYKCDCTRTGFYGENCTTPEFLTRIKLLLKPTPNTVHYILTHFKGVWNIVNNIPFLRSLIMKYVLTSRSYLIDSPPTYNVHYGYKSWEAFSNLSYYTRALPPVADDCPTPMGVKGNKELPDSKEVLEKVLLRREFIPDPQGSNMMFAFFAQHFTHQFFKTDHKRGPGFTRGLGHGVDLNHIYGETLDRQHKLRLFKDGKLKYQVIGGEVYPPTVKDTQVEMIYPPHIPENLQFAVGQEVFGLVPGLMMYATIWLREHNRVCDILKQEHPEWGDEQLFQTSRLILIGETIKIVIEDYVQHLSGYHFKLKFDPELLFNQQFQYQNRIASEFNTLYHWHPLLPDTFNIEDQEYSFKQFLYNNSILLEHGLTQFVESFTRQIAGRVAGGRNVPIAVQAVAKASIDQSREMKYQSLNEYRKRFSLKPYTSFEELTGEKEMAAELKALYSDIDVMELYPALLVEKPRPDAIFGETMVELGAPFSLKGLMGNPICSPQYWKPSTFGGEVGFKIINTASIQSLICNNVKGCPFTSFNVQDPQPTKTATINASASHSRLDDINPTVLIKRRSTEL
Outline: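 Murine J774 macrophages switched to serum-free medium before stimulation; PGE2 in supernatants measured by radioimmunoassay, triplicate wells per condition. IC50 with 95% intervals from sigmoidal variable-slope dose-response fit.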

[4] = system: mouse abdominal contraction (writhing) induced by acetic acid; assay: Abdominal constriction test induced by acetic acid; format: in vivo
Experimental: (§1) Male Swiss albino mice (23-25 g) and Wistar rats (150-200 g) were used.
The antinociceptive activity was determined by the mouse abdominal contraction test using acetic acid (0.6%), which induces writhing, according to Koster's method (Fed. Proc., 1959, 18, 412-418). The number of stretching movements was counted for 10 minutes, starting 5 minutes after injection of acetic acid. The results relating to analgesic activity in the abdominal constriction test with representative compounds of the invention are shown in Table 10.
The test was carried out using 10 animals in the treated group and 20 in the control group (CMC); all the compounds were administered per os with the exception of the compound of Example 8, which was administered i.p.

[5] = system: carrageenan-induced inflammatory state in the rat; assay: Carrageenan test: nociceptive threshold (weight supported); format: in vivo; details: for Weight supported (g) Before treatment: baseline before treatment
Experimental: as §1
The nociceptive threshold in the rat was determined with an analgesiometer, as described by Leighton et al. (Br. J. Pharmacol., 1988, 93, 553-560), the pressure was measured before the treatment and after 30 and 60 min. To reproduce the inflammatory state in the rat, carrageenan was administered i.p. (0.1 ml, 1%) 4 h before the test.
(§2) The test was performed using 6 animals per group, all the compounds were administered per os, 30 min before the test. The carrageenan is administered 2 h before the test.

[6] = system: rat paw oedema induced by carrageenan; assay: Volume of oedema test (carrageenan); format: in vivo
Experimental: The rat paw volumes were measured using a pletismometer. Four hours after injecting carrageenan 1.0% (0.1 ml injection), the volume of the right hind-paw was measured and compared with that of controls treated with a saline/carrageenan solution. The rats were administered the test compounds 3.5 hours after the carrageenan. The results are given as paw volume expressed in ml. The results relating to the analgesic and anti-oedemic activity in the carrageenan test for some representative compounds of the invention are shown in Table 11.
as §2

[7] = system: MIA-induced osteoarthritis; assay: Chronic pain from MIA-induced osteoarthritis; format: in vivo, rat; details: 20 mg/kg per os twice daily for 14 days; for Weight supported (g) Before treatment: baseline before treatment
Experimental: The compounds are administered per os at a dose of 20 mg/kg twice daily for 14 days. Monosodium iodoacetate (MIA), 2 mg in 25 μL is injected in the left knee of anaesthetized rats, the test is carried out according to the literature. Each experiment represents the mean value for 5 animals.

[8] = system: carrageenan-induced inflammatory state in the rat; assay: Carrageenan test: nociceptive threshold (weight supported); format: in vivo; details: 20 mg/kg per os

Compound: Cc1c(CC(=O)OCCO[N+](=O)[O-])cc(-c2ccc(S(C)(=O)=O)cc2)n1-c1ccc(F)cc1 [Example 2, 2-(Nitrooxy)ethyl-2-[(1-(4-fluorophenyl)-2-methyl-5-(4-(methylsulphonyl)phenyl)-1H-pyrrol-3-yl)]acetate]
IC50 [1]: 3470 nM
Emax [1]: 58 ± 5%
T ½ (rat liver homogenate [2]): 1.14 ± 0.208 h
Maximum release (%) (rat liver homogenate [3]): 26 ± 7%

Compound: Cc1c(CCOCCO[N+](=O)[O-])cc(-c2ccc(S(C)(=O)=O)cc2)n1-c1ccc(F)cc1 [Example 37, 2-[2-[2-(1-(4-Fluorophenyl)-2-methyl-5-(4-methylsulphonylphenyl)-1H-pyrrol-3-yl]ethoxy]ethyl Nitrate]
IC50 (COX-2): 14 nM
Emax [1]: 49 ± 3%
N writhes ([4]; 10 mg/kg per os): 19.1 ± 2.7
N writhes ([4]; 20 mg/kg per os): 15.2 ± 3.3
Weight supported (g) After treatment 30 min ([5]; 10 mg/kg per os): 55.1 ± 4.7 g
Weight supported (g) After treatment 60 min ([5]; 10 mg/kg per os): 52.6 ± 4.0 g
Weight supported (g) Before treatment ([5]; 10 mg/kg per os): 34.7 ± 2.7 g
Oedema Volume ([6]; 10 mg/kg per os): 1.87 ± 0.07 mL
Weight supported (g) After treatment 30 min [7]: 45.1 ± 3.7 g
Weight supported (g) After treatment 4 h [7]: 39.1 ± 3.5 g
Weight supported (g) After treatment 24 h [7]: 33.8 ± 3.7 g
Weight supported (g) Before treatment [7]: 34.6 ± 3.1 g
T ½ (rat liver homogenate [2]): 0.713 ± 0.115 h
Maximum release (%) (rat liver homogenate [3]): 25 ± 3%

Compound: Cc1c(CCOCCO)cc(-c2ccc(S(C)(=O)=O)cc2)n1-c1ccc(F)cc1 [Example 37-II]
N writhes ([4]; 40 mg/kg per os): 18.2 ± 3.1
Weight supported (g) After treatment 30 min ([5]; 20 mg/kg per os): 46.8 ± 3.7 g
Weight supported (g) After treatment 60 min ([5]; 20 mg/kg per os): 38.7 ± 3.3 g
Weight supported (g) Before treatment ([5]; 20 mg/kg per os): 32.5 ± 3.4 g
Oedema Volume ([6]; 20 mg/kg per os): 2.08 ± 0.07 mL
Weight supported (g) After treatment 30 min [7]: 51.2 ± 3.9 g
Weight supported (g) After treatment 4 h [7]: 50.3 ± 3.8 g
Weight supported (g) After treatment 24 h [7]: 48.1 ± 3.3 g
Weight supported (g) After treatment 36 h [7]: 47.4 ± 3.3 g
Weight supported (g) Before treatment [7]: 33.5 ± 2.6 g

Compound: Cc1c(CCOCCCO[N+](=O)[O-])cc(-c2ccc(S(C)(=O)=O)cc2)n1-c1cccc(F)c1 [Example 42, 3-[2-(1-(3-Fluorophenyl)-2-methyl-5-(4-methylsulphonylphenyl)-1H-pyrrol-3-yl)ethoxy]propyl Nitrate]
IC50 (COX-2): 430 nM
NO release properties Emax (maximum vasorelaxing effect) [1]: S.E.
T ½ (rat liver homogenate [2]): 1.41 ± 0.198 h
Maximum release (%) (rat liver homogenate [3]): 52 ± 8%

Compound: Cc1c(CCOCCCO[N+](=O)[O-])cc(-c2ccc(S(C)(=O)=O)cc2)n1-c1ccc(F)cc1 [Example 41, 3-[2-[2-(1-(4-Fluorophenyl)-2-methyl-5-(4-methylsulphonylphenyl)-1H-pyrrol-3-yl)]ethoxy]propyl Nitrate]
IC50 (COX-2): 190 nM
NO release properties Emax (maximum vasorelaxing effect) [1]: S.E.
Weight supported (g) After treatment 30 min ([5]; 20 mg/kg per os): 49.2 ± 3.7 g
Weight supported (g) After treatment 60 min ([5]; 20 mg/kg per os): 50.7 ± 3.8 g
Weight supported (g) Before treatment ([5]; 20 mg/kg per os): 30.9 ± 2.8 g
Oedema Volume ([6]; 20 mg/kg per os): 1.85 ± 0.08 mL
Weight supported after 120 min [8]: 45.2±4.1

Compound: Cc1c(CCOCCO[N+](=O)[O-])cc(-c2ccc(S(C)(=O)=O)cc2)n1-c1ccc(F)c(F)c1 [Example 39, 2-[2-[2-(1-(3,4-Difluorophenyl)-2-methyl-5-(4-methylsulphonylphenyl)-1H-pyrrol-3-yl]ethoxy]ethyl Nitrate]
IC50 (COX-2): 920 nM
Emax [1]: 43 ± 6%
N writhes ([4]; 20 mg/kg per os): 26.3 ± 3.4
T ½ (rat liver homogenate [2]): 1.14 ± 0.142 h
Maximum release (%) (rat liver homogenate [3]): 30 ± 1%

IC50 [1]: 5250 nM
T ½ (rat liver homogenate [2]): 0.143 ± 0.0483 h
Compound: COc1ccc2cc([C@H](C)C(=O)OCCCCO[N+](=O)[O-])ccc2c1 [Naproxcinod, naproxcinod, reference compound]
Emax [1]: 62 ± 4%
Weight supported (g) After treatment 30 min ([5]; 10 mg/kg per os): 47.9 ± 3.5 g
Weight supported (g) After treatment 60 min ([5]; 10 mg/kg per os): 46.2 ± 3.8 g
Weight supported (g) Before treatment ([5]; 10 mg/kg per os): 33.5 ± 3.7 g
Weight supported (g) After treatment 30 min ([5]; 30 mg/kg per os): 48.2 ± 2.8 g
Weight supported (g) After treatment 60 min ([5]; 30 mg/kg per os): 43.9 ± 3.7 g
Weight supported (g) Before treatment ([5]; 30 mg/kg per os): 32.7 ± 3.8 g
Oedema Volume ([6]; 10 mg/kg per os): 1.95 ± 0.07 mL
Oedema Volume ([6]; 30 mg/kg per os): 1.88 ± 0.07 mL
course of nitrite release (rat liver homogenate [3]; incubation in rat liver homogenate): very rapid, slight release of nitrites
Maximum release (%) (rat liver homogenate [3]): 20 ± 1 %

Compound: Cc1c(CCOCCO[N+](=O)[O-])cc(-c2ccc(S(C)(=O)=O)cc2)n1-c1cccc(F)c1 [Example 38, 2-[2-[2-(1-(3-Fluorophenyl)-2-methyl-5-(4-methylsulphonylphenyl)-1H-pyrrol-3-yl]ethoxy]ethyl Nitrate]
IC50 (COX-2): 28 nM
IC50 [1]: 4790 nM
Emax [1]: 60 ± 4%
N writhes ([4]; 40 mg/kg per os): 25.3 ± 3.6
T ½ (rat liver homogenate [2]): 1.01 ± 0.145 h
Maximum release (%) (rat liver homogenate [3]): 28 ± 3%
